Data as given in publication PMC6352943, “Novel pyrazolo[3,4-d]pyrimidines: design, synthesis, anticancer activity, dual EGFR/ErbB2 receptor tyrosine kinases inhibitory activity, effects on cell cycle profile and caspase-3-mediated apoptosis” (Journal of Enzyme Inhibition and Medicinal Chemistry, 2019).

Assays:
UO-31 = assay: NCI 60 cell line single dose screen (SRB); type: cell-based; conditions: Homo sapiens; UO-31 (renal cancer), single dose 10^−5 M, 48 h; read-out: Growth inhibition percentage
Summary of the method: (§1)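 Cells were plated and grown 24 h at 37 °C, 5% CO2 before compound addition from DMSO stock, then exposed 48 h. Adherent cells were fixed with cold TCA (final 10%) and suspension cells with 16% TCA. SRB-stained protein was read at 515 nm and percent growth was calculated against time-zero and untreated plates.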

A498 = assay: NCI 60 cell line single dose screen (SRB); type: cell-based; conditions: Homo sapiens; A498 (renal cancer), single dose 10^−5 M, 48 h; read-out: Growth inhibition percentage
Summary of the method: as §1

MDA-MB-468 = assay: NCI 60 cell line single dose screen (SRB); type: cell-based; conditions: Homo sapiens; MDA-MB-468 (breast cancer), single dose 10^−5 M, 48 h; read-out: Growth inhibition percentage
Summary of the method: as §1

786-0 = assay: NCI 60 cell line single dose screen (SRB); type: cell-based; conditions: Homo sapiens; 786-0 (renal cancer), single dose 10^−5 M, 48 h; read-out: Growth inhibition percentage
Summary of the method: as §1

U251 = assay: NCI 60 cell line single dose screen (SRB); type: cell-based; conditions: Homo sapiens, U-251; U251 (CNS cancer), single dose 10^−5 M, 48 h; read-out: Growth inhibition percentage
Summary of the method: as §1

MDA-MB-435 = assay: NCI 60 cell line single dose screen (SRB); type: cell-based; conditions: Homo sapiens; MDA-MB-435 (melanoma), single dose 10^−5 M, 48 h; read-out: Growth inhibition percentage
Summary of the method: as §1

MALME-3M = assay: NCI 60 cell line single dose screen (SRB); type: cell-based; conditions: Homo sapiens; MALME-3M (melanoma), single dose 10^−5 M, 48 h; read-out: Growth inhibition percentage
Summary of the method: as §1

SW-620 = assay: NCI 60 cell line single dose screen (SRB); type: cell-based; conditions: Homo sapiens; SW-620 (colon cancer), single dose 10^−5 M, 48 h; read-out: Growth inhibition percentage
Summary of the method: as §1

HCT-116 = assay: NCI 60 cell line single dose screen (SRB); type: cell-based; conditions: Homo sapiens; HCT-116 (colon cancer), single dose 10^−5 M, 48 h; read-out: Growth inhibition percentage
Summary of the method: as §1

M14 = assay: NCI 60 cell line single dose screen (SRB); type: cell-based; conditions: Homo sapiens; M14 (melanoma), single dose 10^−5 M, 48 h; read-out: Growth inhibition percentage
Summary of the method: as §1

T-47D = assay: NCI 60 cell line single dose screen (SRB); type: cell-based; conditions: Homo sapiens, T47D; T-47D (breast cancer), single dose 10^−5 M, 48 h; read-out: Growth inhibition percentage
Summary of the method: as §1

COLO 205 = assay: NCI 60 cell line single dose screen (SRB); type: cell-based; conditions: Homo sapiens, COLO 205, 48 h; read-out: Growth inhibition percentage
Summary of the method: as §1

SF-295 = assay: NCI 60 cell line single dose screen (SRB); type: cell-based; conditions: Homo sapiens; SF-295 (CNS cancer), single dose 10^−5 M, 48 h; read-out: Growth inhibition percentage
Summary of the method: as §1

NCI-H322M = assay: NCI 60 cell line single dose screen (SRB); type: cell-based; conditions: Homo sapiens; NCI-H322M (non-small cell lung cancer), single dose 10^−5 M, 48 h; read-out: Growth inhibition percentage
Summary of the method: as §1

MCF7 = assay: NCI 60 cell line single dose screen (SRB); type: cell-based; conditions: Homo sapiens; MCF7 (breast cancer), single dose 10^−5 M, 48 h; read-out: Growth inhibition percentage
Summary of the method: as §1

OVCAR-8 = assay: NCI 60 cell line single dose screen (SRB); type: cell-based; conditions: Homo sapiens; OVCAR-8 (ovarian cancer), single dose 10^−5 M, 48 h; read-out: Growth inhibition percentage
Summary of the method: as §1

| SMILES | melting point | inhibition at 10 µM (UO-31) | inhibition at 10 µM (A498) | inhibition at 10 µM (MDA-MB-468) | inhibition at 10 µM (786-0) | inhibition at 10 µM (U251) | inhibition at 10 µM (MDA-MB-435) | inhibition at 10 µM (MALME-3M) | inhibition at 10 µM (SW-620) | inhibition at 10 µM (HCT-116) | inhibition at 10 µM (M14) | inhibition at 10 µM (T-47D) | inhibition at 10 µM (COLO 205) | inhibition at 10 µM (SF-295) | inhibition at 10 µM (NCI-H322M) | inhibition at 10 µM (MCF7) | inhibition at 10 µM (OVCAR-8) |
| --- | --- | --- | --- | --- | --- | --- | --- | --- | --- | --- | --- | --- | --- | --- | --- | --- | --- |
| Cc1nn(-c2ccc(F)cc2)c2nc[nH]c(=O)c12 [Compound 3, 1–(4-Fluorophenyl)-3-methyl-1H-pyrazolo[3,4-d]pyrimidin-4(5H)-one] | > 300 °C | 11.7% | 0.02% | -11.5% | 1.16% | -1.7% | -7.05% | -8.22% | -12.3% | -1.64% | -7.65% | 0.23% | -14.9% | -4.14% | 5.19% | 2.7% | -0.16% |
| Cc1nn(-c2ccc(F)cc2)c2ncnc(N)c12 [Compound 4, 1–(4-Fluorophenyl)-3-methyl-1H-pyrazolo[3,4-d]pyrimidin-4-amine] | > 300 °C | 11.3% | 0.68% | -13.2% | 9.41% | -7.56% | -5.15% | 5.86% | -18.7% | -8.66% | -3.62% | 4.18% | -18.4% | -3.53% | 7.26% | 9.82% | -4.64% |
| Cc1nn(-c2ccc(F)cc2)c2nc(N)nc(N)c12 [Compound 5, 1–(4-Fluorophenyl)-3-methyl-1H-pyrazolo[3,4-d]pyrimidine-4,6-diamine] | > 300 °C | 14.2% | -3.11% | -15.5% | 2.79% | -6.63% | -7.73% | -7.8% | -16.8% | -2.75% | -2.93% | -2.65% | -13.5% | -1.89% | 8.14% | 0.73% | -7.15% |
| Cc1nn(-c2ccc(F)cc2)c2ncnc(Cl)c12 [Compound 6, 4-Chloro-1–(4-fluorophenyl)-3-methyl-1H-pyrazolo[3,4-d]pyrimidine] | 178 to 180 °C | 11.8% | 4.71% | 8.7% | -0.09% | 5.15% | -8.83% | -4.3% | -2.88% | 7.98% | 5.89% | 0.28% | -14.9% | -4.11% | 5.32% | 11.6% | 6.34% |
| Cc1ccc(Nc2ncnc3c2c(C)nn3-c2ccc(F)cc2)cc1 [Compound 7c, 1–(4-Fluorophenyl)-3-methyl-N-(p-tolyl)-1H-pyrazolo[3,4-d]-pyrimidin-4-amine] | – | 8.66% | 5.97% | -15% | 0.56% | 2.65% | -6.94% | 1.7% | -8.11% | 3.2% | 0.75% | 14.6% | -13.3% | -3.83% | 10% | 6.19% | 2.02% |
